The numbers were not newly measured in patent US7339052B2, “Phosphoramidite activator for oligonucleotide synthesis” (Honeywell International Inc., priority 2005, dated 2008), which cites them from elsewhere.

With `c1ccc(CSc2nnn[nH]2)cc1` [BMT, 5-benzylmercaptotetrazole], the “maximum solubility in acetonitrile” value is “about 0.33 M”.
